Measurements: patent US6096930A, “Herbicidal cyclohexane-1,3-dione derivatives and their preparation process” (Korea Research Institute of Chemical Technology, priority 1994, dated 2000)
Like-named read-outs stand apart in the source and are kept apart here.

Key:
Test in all cases: Herbicidal activity for paddy test
Type in all cases: in vivo
SAGPY = conditions: for pest or weed control at 2 g/ha: 0.002 kg/ha; for pest or weed control at 8 g/ha: 0.008 kg/ha; for pest or weed control at 31 g/ha: 0.031 kg/ha; for pest or weed control at 125 g/ha: 0.125 kg/ha; for pest or weed control at 500 g/ha: 0.500 kg/ha
Text: (§1) The sterilized sandy loam soil is filled in test pot having a surface area of 348 cm^2 for upland test conditions or 115 cm^2 for paddy test species were planted in furrows.
(§2) The herbicidal activity data were taken visually by percent control, wherein 0 signifies no herbicidal effect and 100 signifies complete kill.

MOOVA = conditions: for pest or weed control at 2 g/ha: 0.002 kg/ha; for pest or weed control at 8 g/ha: 0.008 kg/ha; for pest or weed control at 31 g/ha: 0.031 kg/ha; for pest or weed control at 125 g/ha: 0.125 kg/ha; for pest or weed control at 500 g/ha: 0.500 kg/ha
Text: as §1, §2

SCPJU = conditions: for pest or weed control at 2 g/ha: 0.002 kg/ha; for pest or weed control at 8 g/ha: 0.008 kg/ha; for pest or weed control at 31 g/ha: 0.031 kg/ha; for pest or weed control at 125 g/ha: 0.125 kg/ha; for pest or weed control at 500 g/ha: 0.500 kg/ha
Text: as §1, §2

ECHOR = conditions: for pest or weed control at 2 g/ha: 0.002 kg/ha; for pest or weed control at 8 g/ha: 0.008 kg/ha; for pest or weed control at 31 g/ha: 0.031 kg/ha; for pest or weed control at 125 g/ha: 0.125 kg/ha; for pest or weed control at 500 g/ha: 0.500 kg/ha
Text: as §1, §2

ORYSA = conditions: for plant injury at 2 g/ha: 0.002 kg/ha; for plant injury at 8 g/ha: 0.008 kg/ha; for plant injury at 31 g/ha: 0.031 kg/ha; for plant injury at 125 g/ha: 0.125 kg/ha; for plant injury at 500 g/ha: 0.500 kg/ha
Text: as §1, §2

[1] = 3 Leaf, read-out: Herbicidal activity, ORYSA (3 Leaf)
[2] = seed, read-out: Herbicidal activity, ORYSA (seed)

Compound	pest or weed control at 2 g/ha (SAGPY)	pest or weed control at 8 g/ha (SAGPY)	pest or weed control at 31 g/ha (SAGPY)	pest or weed control at 125 g/ha (SAGPY)	pest or weed control at 500 g/ha (SAGPY)	pest or weed control at 2 g/ha (MOOVA)	pest or weed control at 8 g/ha (MOOVA)	pest or weed control at 31 g/ha (MOOVA)	pest or weed control at 125 g/ha (MOOVA)	pest or weed control at 500 g/ha (MOOVA)	pest or weed control at 2 g/ha (SCPJU)	pest or weed control at 8 g/ha (SCPJU)	pest or weed control at 31 g/ha (SCPJU)	pest or weed control at 125 g/ha (SCPJU)	pest or weed control at 500 g/ha (SCPJU)	pest or weed control at 2 g/ha (ECHOR)	pest or weed control at 8 g/ha (ECHOR)	pest or weed control at 31 g/ha (ECHOR)	pest or weed control at 125 g/ha (ECHOR)	pest or weed control at 500 g/ha (ECHOR)	further results
CCCC(=NOCC=CCl)C1=C(O)CC(c2c(C)c(C)c3c(c2C)CC(C)(C)C3)CC1=O (stereo not drawn) [Compound 9]	0%	0%	0%	0%	0%	0%	0%	0%	0%	0%	0%	0%	0%	0%	0%	0%	50%	100%	100%	100%	plant injury at 2 g/ha (ORYSA; [1]): 0%; plant injury at 8 g/ha (ORYSA; [1]): 0%; plant injury at 31 g/ha (ORYSA; [1]): 0%; plant injury at 125 g/ha (ORYSA; [1]): 0%; plant injury at 500 g/ha (ORYSA; [1]): 0%; plant injury at 2 g/ha (ORYSA; [2]): 0%; plant injury at 8 g/ha (ORYSA; [2]): 0%; plant injury at 31 g/ha (ORYSA; [2]): 0%; plant injury at 125 g/ha (ORYSA; [2]): 70%; plant injury at 500 g/ha (ORYSA; [2]): 100%
CCON=C(CC)C1=C(O)CC(c2c(C)c(C)c3c(c2Cl)CC(C)(C)C3)CC1=O (stereo not drawn) [Compound 39]	0%	0%	0%	0%	0%	0%	0%	0%	0%	0%	0%	0%	0%	0%	0%	0%	80%	100%	100%	100%	plant injury at 2 g/ha (ORYSA; [1]): 0%; plant injury at 8 g/ha (ORYSA; [1]): 0%; plant injury at 31 g/ha (ORYSA; [1]): 0%; plant injury at 125 g/ha (ORYSA; [1]): 0%; plant injury at 500 g/ha (ORYSA; [1]): 80%; plant injury at 2 g/ha (ORYSA; [2]): 0%; plant injury at 8 g/ha (ORYSA; [2]): 0%; plant injury at 31 g/ha (ORYSA; [2]): 100%; plant injury at 125 g/ha (ORYSA; [2]): 100%; plant injury at 500 g/ha (ORYSA; [2]): 100%
C=CCON=C(CCC)C1=C(O)CC(c2c(C)c(C)c3c(c2C)CC(C)(C)C3)CC1=O (stereo not drawn) [Compound 8]	0%	0%	0%	0%	0%	0%	0%	0%	0%	0%	0%	0%	0%	0%	0%	0%	40%	100%	100%	100%	plant injury at 2 g/ha (ORYSA; [1]): 0%; plant injury at 8 g/ha (ORYSA; [1]): 0%; plant injury at 31 g/ha (ORYSA; [1]): 0%; plant injury at 125 g/ha (ORYSA; [1]): 0%; plant injury at 500 g/ha (ORYSA; [1]): 0%; plant injury at 2 g/ha (ORYSA; [2]): 0%; plant injury at 8 g/ha (ORYSA; [2]): 0%; plant injury at 31 g/ha (ORYSA; [2]): 60%; plant injury at 125 g/ha (ORYSA; [2]): 100%; plant injury at 500 g/ha (ORYSA; [2]): 100%
CCCC(=NOC)C1=C(O)CC(c2c(C)c(C)c3c(c2C)CC(C)(CC)C3)CC1=O (stereo not drawn) [Compound 16]	0%	0%	0%	0%	30%	0%	0%	30%	50%	50%	0%	0%	0%	0%	0%	0%	30%	70%	100%	100%	plant injury at 2 g/ha (ORYSA; [1]): 0%; plant injury at 8 g/ha (ORYSA; [1]): 0%; plant injury at 31 g/ha (ORYSA; [1]): 0%; plant injury at 125 g/ha (ORYSA; [1]): 0%; plant injury at 500 g/ha (ORYSA; [1]): 30%; plant injury at 2 g/ha (ORYSA; [2]): 0%; plant injury at 8 g/ha (ORYSA; [2]): 0%; plant injury at 31 g/ha (ORYSA; [2]): 30%; plant injury at 125 g/ha (ORYSA; [2]): 100%; plant injury at 500 g/ha (ORYSA; [2]): 100%
C=C(Cl)CON=C(CC)C1=C(O)CC(c2c(C)c(C)c3c(c2C)CC(C)(CC)C3)CC1=O (stereo not drawn) [Compound 15]	0%	0%	0%	0%	0%	0%	0%	0%	0%	30%	0%	0%	0%	0%	0%	0%	30%	30%	100%	100%	plant injury at 2 g/ha (ORYSA; [1]): 0%; plant injury at 8 g/ha (ORYSA; [1]): 0%; plant injury at 31 g/ha (ORYSA; [1]): 0%; plant injury at 125 g/ha (ORYSA; [1]): 0%; plant injury at 500 g/ha (ORYSA; [1]): 30%; plant injury at 2 g/ha (ORYSA; [2]): 0%; plant injury at 8 g/ha (ORYSA; [2]): 0%; plant injury at 31 g/ha (ORYSA; [2]): 0%; plant injury at 125 g/ha (ORYSA; [2]): 40%; plant injury at 500 g/ha (ORYSA; [2]): 100%
C=CCON=C(CCC)C1=C(O)CC(c2c(C)c(C)c3c(c2C)CC(C)(CC)C3)CC1=O (stereo not drawn) [Compound 18]	0%	0%	0%	0%	0%	0%	0%	0%	0%	0%	0%	0%	0%	0%	0%	0%	30%	70%	100%	100%	plant injury at 2 g/ha (ORYSA; [1]): 0%; plant injury at 8 g/ha (ORYSA; [1]): 0%; plant injury at 31 g/ha (ORYSA; [1]): 0%; plant injury at 125 g/ha (ORYSA; [1]): 0%; plant injury at 500 g/ha (ORYSA; [1]): 0%; plant injury at 2 g/ha (ORYSA; [2]): 0%; plant injury at 8 g/ha (ORYSA; [2]): 0%; plant injury at 31 g/ha (ORYSA; [2]): 0%; plant injury at 125 g/ha (ORYSA; [2]): 30%; plant injury at 500 g/ha (ORYSA; [2]): 100%
CCCC(=NOCC)C1=C(O)CC(c2c(C)c3c(c(C)c2Cl)CC(C)(C)C3)CC1=O (stereo not drawn) [Compound 26, 5-(6-Chloro-2,2,4,7-tetramethylindan-5-yl)-2-[1-(ethoxyimino)butyl]-3-hydroxycyclohex-2-en-1-one]	0%	0%	0%	0%	0%	0%	0%	0%	0%	0%	0%	0%	0%	0%	40%	0%	0%	100%	100%	100%	plant injury at 2 g/ha (ORYSA; [1]): 0%; plant injury at 8 g/ha (ORYSA; [1]): 0%; plant injury at 31 g/ha (ORYSA; [1]): 0%; plant injury at 125 g/ha (ORYSA; [1]): 0%; plant injury at 500 g/ha (ORYSA; [1]): 30%; plant injury at 2 g/ha (ORYSA; [2]): 0%; plant injury at 8 g/ha (ORYSA; [2]): 0%; plant injury at 31 g/ha (ORYSA; [2]): 20%; plant injury at 125 g/ha (ORYSA; [2]): 100%; plant injury at 500 g/ha (ORYSA; [2]): 100%
